Measured values published in patent publication US9616006B2, “Methods and compositions for treating dermatological diseases and conditions” (priority 2007, dated 2017).

Columns and labels:
IL-6 [1] = assay: UV-induced IL-6 production in keratinocytes (ELISA); assay type: cell-based, human; settings: Homo sapiens, Keratinocyte, read-out: Percent Inhibition of IL-6
Method: (§1) In one study, various concentrations of DHE were added to culture medium and these media were placed on human fibroblast cell cultures (results shown in FIG. 1). Cells were either not induced or induced with UVB radiation to stimulate cytokine/PGE-2 production. At 24 hours after treatment, the cell culture medium was removed and assayed by ELISA methods for the expression of PGE-2, various cytokines and chemokines.
(§2) When similar experiments were carried out with human keratinocytes, DHE was again found to markedly suppress the UVR induction of PGE-2, with a concentration of 50 uM inhibiting the production of PGE-2 by over 60% (results shown in FIG. 2). […] Further, since PGE-2 is known to be a principal factor in the development of actinic keratosis and skin cancer, DHE can also be used in treating these conditions.
(§3) DHE and IE both have inhibitory effects on production of the inflammatory mediators in keratinocytes.

TNF-α [2] = assay: LPS-induced TNF-α production in monocytes; assay type: cell-based; settings: Monocyte; Monocytes (LPS); 100 uM; read-out: Percent Inhibition of TNF-α
Description: (§4) DHE and IE both have inhibitory effects on the production of the inflammatory mediators in monocytes.

PGE2 = assay: TPA-induced PGE2 production in keratinocytes (ELISA); assay type: cell-based, human; settings: Homo sapiens, Keratinocyte, read-out: Percent Inhibition of PGE2
IL-6 [3] = assay: TPA-induced IL-6 production in keratinocytes (ELISA); assay type: cell-based, human; settings: Homo sapiens, Keratinocyte, read-out: Percent Inhibition of IL-6
TNF-α [4] = assay: UV-induced TNF-α production in keratinocytes (ELISA); assay type: cell-based, human; settings: Homo sapiens, Keratinocyte, read-out: Percent Inhibition of TNF-α
Method: as §1, §2, §3

[5] = system: HAS-2 (Hyaluronic acid synthase-2); assay: HAS-2 mRNA in fibroblasts by RT-PCR; assay type: cell-based, human; settings: 72 hours
Description: (§5) The presently claimed and disclosed inventive concept(s) further contemplates use of various DHE, IE and EV compositions and salts, esters, ethers, and derivatives thereof to mitigate the effects of aging on the skin. For all aging studies, normal human fibroblast cell cultures were used. These cells normally produce collagen, elastin and hyaluronic acid. As the skin ages, the fibroblasts in the dermis lose their ability to produce these three key components of skin, and the skin consequently loses elasticity, thickness and smooth texture. In addition, as fibroblasts age, they increase the expression of certain enzymes that destroy collagen and elastin. There are about 13 of these enzymes, collectively referred to as MMPs (matrix metalloproteinases). One of the principal MMPs, MMP-1, is responsible for collagen degradation. For experiments herein to determine the effects of DHE, IE and EV on collagen, elastin and hyaluronic acid, fibroblasts were treated with the compounds for 72 hours, mRNA was then isolated, and analyzed for abundance by RT-PCR (Reverse transcriptase-Polymerase Chain Reaction).
DHE, IE and EV, are also shown herein to stimulate mRNA for HAS-2. HAS-2 (Hyaluronic acid synthase-2) is the enzyme that manufactures hyaluronic acid (HA) in the skin. HA is a glycosaminoglycan important for maintaining moisture and suppleness in the skin. […] As the skin ages, the production of HA decreases and this causes the skin to sag and become thin.

IL-8 [6] = assay: UV-induced IL-8 production in keratinocytes (ELISA); assay type: cell-based, human; settings: Homo sapiens, Keratinocyte, read-out: Percent Inhibition of IL-8
Method: as §1, §2, §3

MCP-1 [7] = assay: LPS-induced MCP-1 production in monocytes; assay type: cell-based; settings: Monocyte; Monocytes (LPS); 100 uM; read-out: Percent Inhibition of MCP-1
Description: as §4

tyrosinase [8] = assay: DOPA oxidase assay of cell extracts from treated human melanocytes; assay type: cell-based; settings: extracts of human melanocytes treated for 9 days
Method: Cell lysates were prepared from human melanocytes. The amount of tyrosinase in these cell lysates was determined by DOPA oxidase assay.
FIGS. 14-17 show the skin-lightening effects of topically-applied formulations of isoeugenol and its ester isoeugenol acetate (a.k.a. isoeugenyl acetate) in the treatment of hyperpigmented areas in the skin, wherein a reduction of melanin pigment in the skin is caused by the topical application of the formulations. In addition to blocking a post-tyrosinase step in melanin synthesis, IE and IE acetate can inhibit the expression of the tyrosinase protein in human melanocytes. […] If the cell extracts contain tyrosinase when an aliquot of extract is placed in a tube containing L-DOPA (a tyrosinase substrate) in buffer, the enzyme will convert the DOPA to melanin. The melanin will appear brownish-black in the assay tube. If IE or IE-acetate has inhibited tyrosinase synthesis in melanocytes, then the extracts from these cells will contain no enzyme and will not be able to produce melanin from DOPA in the assay tube. […] In this assay, cell extracts from human melanocytes either left untreated or treated with 200 micromolar of either IE or isoeugenol acetate for 9 days are run on SDS polyacrylamide electrophoresis gels to separate tyrosinase from other proteins. The tyrosinase in the gel is then blotted to a membrane and the tyrosinase detected by staining with a specific anti-tyrosinase antibody. The antibody-bound tyrosinase is then visualized by chemiluminescence.

MCP-1 [9] = assay: TNF-α-induced MCP-1 production in monocytes; assay type: cell-based; settings: Monocyte, read-out: Percent Inhibition of MCP-1
Description: as §4

IL-8 [10] = assay: TNF-α-induced IL-8 production in monocytes; assay type: cell-based; settings: Monocyte, read-out: Percent Inhibition of IL-8
Description: as §4

collagen 1 mRNA = assay: Collagen mRNA in fibroblasts by RT-PCR; assay type: cell-based, human; settings: fibroblast cell cultures treated 72 hours
Description: as §5, with “[…] Fibroblast cell cultures” for “For experiments herein to determine the effects of DHE, IE and EV on collagen, elastin and hyaluronic acid, fibroblasts”, “either IE, DHE or EV” for “the compounds”, “hours at which time the amount of collagen” for “hours,”, “mRNA present in the cells” for “mRNA”, “determined.” for “then isolated, and analyzed for abundance by RT-PCR (Reverse transcriptase-Polymerase Chain Reaction).”

tyrosinase [11] = assay: Melanin synthesis in vitro from L-DOPA catalyzed by tyrosinase (test tube); assay type: biochemical
Method: Two ml of a sodium phosphate buffer, pH 6.8 containing 0.2% L-DOPA (dihydroxyphenylalanine—a tyrosinase substrate) were placed in each of two test tubes. To one test tube was added 20 microliters of ethanol and to the other tube was added 20 microliters of a 1M stock of IE made up in ethanol (labeled TH-212). To start melanin synthesis from the L-DOPA substrate, 20 microliters of a tyrosinase preparation (0.5 mg/ml) was added to both tubes, the tubes were mixed and left at room temperature. The photograph in FIG. 13 was taken 2 hours after the start of the reaction.

CC=Cc1ccc(O)c(OC)c1 [IE, isoeugenol]
inhibition at 100 µM (IL-6 [1]): 93%
inhibition at 100 µM (TNF-α [2]): 80%
inhibition at 100 µM (PGE2): 82%
inhibition at 100 µM (IL-6 [3]): 94%
inhibition at 100 µM (TNF-α [4]): 60%
mRNA for HAS-2 [5]: stimulate
inhibition at 100 µM (IL-8 [6]): 76%
inhibition at 100 µM (MCP-1 [7]): 87%
tyrosinase activity / melanin made from L-DOPA by cell extracts (tyrosinase [8]): very little melanin was made
tyrosinase activity / melanin made from L-DOPA by cell extracts (tyrosinase [8]; listed as TH-212): absence of tyrosinase activity
inhibition at 100 µM (MCP-1 [9]): 82%
inhibition at 100 µM (IL-8 [10]): 78%
collagen production (collagen mRNA) (collagen 1 mRNA): stimulation
melanin synthesis (tyrosinase [11]; 0.2% L-DOPA, pH 6.8, 20 microliters of 1M stock in 2 ml, tyrosinase, 2 hours, room temperature): almost completely blocked
darkening of test tubes (melanin production) (tyrosinase [11]; tubes containing DOPA, IE and tyrosinase, even after 2 weeks): fail to darken
